Laboratory results: patent publication US7179825B2, “Retinoic acid mimetic anilides” (Janssen Pharmaceutica N.V., priority 1997, dated 2007)

Key:
[1] = test system: metabolism of retinoic acid in human breast cancer cells; experiment: Inhibition of retinoic acid (RA) metabolism (Example C.1); type: cell-based; details: MCF-7 human breast cancer cells, 3H-RA as substrate, concentration needed to reduce the amount of metabolites to 50% of the control
Outline: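 MCF-7 cells, pre-stimulated with RA the day before, incubated with ³H-RA substrate and test compound in 1% DMSO. Polar ³H-metabolites separated from unmetabolized RA and counted by scintillation. IC50 is the concentration cutting metabolite formation to 50% of control, with blank run alongside.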

Ovariectomized rats = experiment: Vaginal keratinization test on ovariectomized rats (Example C.2); type: in vivo; details: estradiol undecylate induced keratinization, per os once daily on days 1-3, active dose = 50% of rats show complete suppression; for minimal effective dose: Rattus norvegicus, po, read-out: LAD (lowest active dose)
Outline: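 Ovariectomized rats given s.c. estradiol undecylate (100 μg per 100 g body weight in sesame oil), then oral compound once daily on days 1-3 (vehicle PEG 200). Vaginas assessed histologically one day after last dose; lowest active dose (mg/kg) is the dose giving complete keratinization suppression in 50% of rats.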

Row | SMILES | IC50 ([1]; MCF7) | IC50 [1] | minimal effective dose (Ovariectomized rats) | LAD (lowest active dose) (Ovariectomized rats)
1 | CCCCCC(C)C(c1ccc(NC(=O)Cc2ccc(OC)c(OC)c2)cc1)n1ccnc1 (single isomer, unassigned) [Compound 385] | – | 6.75 nM | – | >2.50 mg/kg
2 | CC(C)C(c1ccc(NC(=O)C(c2ccccc2)C2CCCCC2)cc1)n1ccnc1 (mixture of isomers) [Compound 661] | – | 34 nM | – | >10.00 mg/kg
3 | CC(C)C(c1ccc(NC(=O)Cc2ccc(Cl)cc2)cc1)(C(C)C)n1cncn1 [Compound 745] | – | 3.87 nM | – | >5.00 mg/kg
4 | CC(C)C(c1ccc(NC(=O)c2cccs2)cc1)n1ccnc1 (centres unmarked) [Compound 187] | – | 18.8 nM | – | >10.00 mg/kg
5 | CCC(CC)C(c1ccc(NC(=O)Cc2ccc(OC)cc2)cc1)n1ccnc1 (racemic) [Compound 105] | – | 0.0516 nM | – | 2.50 mg/kg
6 | CCC(CC)C(c1ccc(NC(=O)Cc2ccc3c(c2)OCCO3)cc1)n1cncn1 (racemic) [Compound 7] | – | 0.79 nM | – | >2.50 mg/kg
7 | CC(C)C(c1ccc(NC(=O)c2cnc3ccccc3n2)cc1)n1ccnc1 (racemic) [Compound 216] | – | 11.7 nM | – | 20.00 mg/kg
8 | CCC(C)C(c1ccc(NC(=O)Cc2ccc(OC)c(OC)c2)cc1)n1cncn1 (mixture of isomers) [Compound 640] | – | 2.17 nM | – | >2.50 mg/kg
9 | COc1ccc(CC(=O)Nc2ccc(C(C(C)C)(C(C)C)n3ccnc3)cc2)cc1OC [Compound 762] | – | 40.8 nM | – | >5.00 mg/kg
10 | CC(C)C(c1ccc(NC(=O)c2csc(-c3ccccc3)n2)cc1)n1ccnc1 (racemic) [Compound 186] | – | > 100 nM | – | >10.00 mg/kg
11 | CC(C)C(c1ccc(NC(=O)/C=C/c2ccccc2)cc1)n1ccnc1 (racemic) [Compound 502] | – | 32.9 nM | – | 5.00 mg/kg
12 | C/C(=C\c1ccccc1)C(=O)Nc1ccc(C(C(C)C)n2cncn2)cc1 (racemic) [Compound 154, (±)-(E)-2-methyl-N-[4-[2-methyl-1-(1H-1,2,4-triazol-1-yl)propyl]phenyl]-3-phenyl-2-propenamide] | 4.14 nM | – | 5 mg/kg | –
13 | CC(C)C(c1ccc(NC(=O)c2ccc3c(c2)OCO3)cc1)n1ccnc1 (racemic) [Compound 232] | – | 1.51 nM | – | >10.00 mg/kg
14 | CCC(CC)C(O)(c1ccc(NC(C)=O)cc1)c1cncn1C (racemic) [Compound 772] | – | 0.146 nM | – | >5.00 mg/kg
15 | CC(C)C(c1ccc(NC(=O)Cc2ccc(Cl)c(Cl)c2)cc1)n1ccnc1 (centres unmarked) [Compound 143] | – | 4.08 nM | – | 10.00 mg/kg
16 | CC(C(c1ccc(NC(=O)Cc2ccc(O)c(Cl)c2)cc1)n1cncn1)N(C)C (single isomer, unassigned) [Compound 289] | – | 0.507 nM | – | >2.50 mg/kg
17 | CC(C)C(c1ccc(NC(=O)Nc2cccc([N+](=O)[O-])c2)cc1)n1ccnc1 (racemic) [Compound 737] | – | 2.36 nM | – | >10.00 mg/kg
18 | Cc1ccc(CC(=O)Nc2ccc(C(C(C)C)n3cncn3)cc2)cc1 (centres unmarked) [Compound 133] | – | 4.56 nM | – | >5.00 mg/kg
19 | CC(C)C(c1ccc(NC(=O)C2COc3ccccc3C2)cc1)n1ccnc1 (mixture of isomers) [Compound 253] | – | 5.55 nM | – | >5.00 mg/kg
20 | CCC(CC)C(c1ccc(NC(=O)Cc2ccc(O)c(OC)c2)cc1)n1cncn1 (racemic) [Compound 72] | – | 1.66 nM | – | 2.50 mg/kg
21 | CCN(CC)C(C)C(c1ccc(NC(=O)Cc2ccc(OC)c(OC)c2)cc1)n1ccnc1 (single isomer, unassigned) [Compound 383] | – | 0.729 nM | – | >2.50 mg/kg
22 | C/C(=C\c1ccc(F)cc1)C(=O)Nc1ccc(C(C(C)C)n2cncn2)cc1 (racemic) [Compound 157] | – | 84.8 nM | – | >10.00 mg/kg
23 | O=C(/C=C/c1ccccc1)Nc1ccc(C(c2ccccc2)n2ccnc2)cc1 (racemic) [Compound 497] | – | 37.6 nM | – | >20.00 mg/kg
24 | CC(C)C(c1ccc(NC(=O)C2Oc3ccccc3O2)cc1)n1cncn1 (centres unmarked) [Compound 161] | – | 1.87 nM | – | >2.50 mg/kg
25 | CC(C)C(c1ccc(NC(=O)C2(c3ccccc3)CCCCC2)cc1)n1ccnc1 (centres unmarked) [Compound 200] | – | 44.3 nM | – | >10.00 mg/kg

Second part, led by results:

Row | IC50 ([1]; MCF7) | IC50 [1] | SMILES | minimal effective dose (Ovariectomized rats) | LAD (lowest active dose) (Ovariectomized rats)
26 | 31.1 nM | – | CC(C)C(c1ccc(NC(N)=O)cc1)n1ccnc1 (racemic) [Compound 266, (±)-4-[1-(1H-imidazol-1-yl)-2-methylpropyl]phenylurea] | > 10 mg/kg | –
27 | – | 1.26 nM | Cc1ccc(CC(=O)Nc2ccc(C(C(C)N(C)C)n3ccnc3)cc2)cc1C (single isomer, unassigned) [Compound 306] | – | >2.50 mg/kg
28 | – | 1.08 nM | CC(C)(C)C(c1ccc(NC(=O)Cc2ccc(Cl)cc2)cc1)n1ccnc1 (centres unmarked) [Compound 365] | – | 10.00 mg/kg
29 | – | 1.31 nM | CC(C)C(c1ccc(NC(=O)Cc2ccc(Cl)cc2Cl)cc1)n1ccnc1 (centres unmarked) [Compound 141] | – | >10.00 mg/kg
30 | – | 40.8 nM | O=C(Nc1ccc(C(c2ccc(Cl)cc2)n2ccnc2)cc1)C(O)c1ccccc1 (centres unmarked) [Compound 423] | – | 20.00 mg/kg
31 | – | > 100 nM | C/C(=C\c1ccccc1)C(=O)N(C)c1ccc(C(C(C)C)n2ccnc2)cc1 (racemic) [Compound 421] | – | >10.00 mg/kg
32 | – | > 1000 nM | CCCCC(c1ccc(NC(=O)/C(C)=C/c2ccccc2)cc1)n1ccnc1 (racemic) [Compound 462] | – | 20.00 mg/kg
33 | – | 7.82 nM | CC(C)C(c1ccc(NC(=O)C2CC2)cc1)n1ccnc1 (centres unmarked) [Compound 199] | – | >10.00 mg/kg
34 | – | 0.0483 nM | CCC(CC)C(c1ccc(NC(=O)Cc2cc(OC)c(OC)c(OC)c2)cc1)n1cncn1 (racemic) [Compound 80] | – | >2.50 mg/kg
35 | – | > 100 nM | C/C(=C\c1ccccc1)C(=O)Nc1ccc(C(c2ccccn2)C(C)C)cc1 (centres unmarked) [Compound 682] | – | >20.00 mg/kg
36 | – | 5 nM | C=C(C)C(=O)Nc1ccc(C(C(C)C)n2ccnc2)cc1 (racemic) [Compound 597] | – | >10.00 mg/kg
37 | – | 35.5 nM | CC(C)C(c1ccc(NC(=O)Cc2ccccn2)cc1)n1ccnc1 (racemic) [Compound 247] | – | 10.00 mg/kg
38 | – | 35.9 nM | CC(C)C(c1ccc(NC(=O)C2CSc3ccccc3O2)cc1)n1ccnc1 (racemic) [Compound 243] | – | 10.00 mg/kg
39 | – | 12.2 nM | CC(C)C(c1ccc(NC(=O)c2cnccn2)cc1)n1ccnc1 (racemic) [Compound 170] | – | 10.00 mg/kg
40 | – | 1.14 nM | Cc1cc(CC(=O)Nc2ccc(C(C(C)N(C)C)n3cncn3)cc2)cc(C)c1C (single isomer, unassigned) [Compound 290] | – | 2.50 mg/kg
41 | – | < 0.01 nM | CCC(CC)C(c1ccc(NC(=O)Cc2ccc3nc(N)sc3c2)cc1)n1ccnc1 (racemic) [Compound 58] | – | 5.00 mg/kg
42 | – | 8.27 nM | CC(C)C(=O)Nc1ccc(C(C(C)C)n2ccnc2)cc1 (racemic) [Compound 209] | – | 5.00 mg/kg
43 | – | 2.82 nM | Cc1noc(C)c1C(=O)Nc1ccc(C(C(C)C)n2ccnc2)cc1 (racemic) [Compound 242] | – | >10.00 mg/kg
44 | – | 83.8 nM | O=C(Nc1ccc(C(c2ccccc2)n2ccnc2)cc1)C(O)c1ccccc1 (centres unmarked) [Compound 420] | – | >20.00 mg/kg
45 | – | 0.786 nM | COc1cc(CC(=O)Nc2ccc(C(C(C)N(C)C)n3cncn3)cc2)ccc1Cl (single isomer, unassigned) [Compound 297] | – | >2.50 mg/kg
46 | – | 1.74 nM | CCC(CC)C(c1ccc(NC(=O)Cc2ccc(C)c(OC)c2)cc1)n1cncn1 (racemic) [Compound 84] | – | >2.50 mg/kg
47 | – | 16.9 nM | CC(C)C(c1ccc(NC(=O)C(F)=Cc2ccccc2)cc1)n1ccnc1 (racemic) [Compound 461] | – | 10.00 mg/kg
48 | 39.6 nM | – | CC(C)C(c1ccc(NC(=S)NC(=O)c2ccccc2)cc1)n1ccnc1 (racemic) [Compound 698, (±)-N-benzoyl-N′-[4-[1-(1H-imidazol-1-yl)-2-methylpropyl]phenyl]thiourea] | 20 mg/kg | –
49 | – | < 0.1 nM | CC(Sc1ccccc1)C(c1ccc(NC(=O)Cc2ccc(Cl)cc2)cc1)n1ccnc1 (single isomer, unassigned) [Compound 376] | – | 2.50 mg/kg
50 | – | 50.4 nM | CCCC/C(=C\c1ccccc1)C(=O)Nc1ccc(C(C(C)C)n2ccnc2)cc1 (racemic) [Compound 465] | – | >20.00 mg/kg
51 | – | 35.1 nM | CC(C)C(c1ccc(NC(=O)c2cccn2C)cc1)n1ccnc1 (centres unmarked) [Compound 195] | – | >10.00 mg/kg
52 | – | 1.2 nM | CC(C)C(c1ccc(NC(=O)CSc2ccccc2)cc1)n1ccnc1 (racemic) [Compound 223] | – | 5.00 mg/kg
